This is an account of results in patent US20190187129A1, “CANCER MODELING PLATFORMS AND METHODS OF USING THE SAME” (Wake Forest University Health Sciences, priority 2016, published 2019).

The term viability denotes a per cent measure of how many cells are alive, often set against a control.

For data set [1], the system named is SW480 cells. The data set is described as follows: 2D drug screen, MTS assay. It is filed as cell-based. To be noted: Homo sapiens, read-out: relative cellular viability (MTS, relative to control). As for the experimental part:
(§1) Cancer cells seeded directly into wells were given 4-5 hours to reattach to the bottom of the wells. After that time, the anticancer drug solutions were administered in place of the media (FIG. 6, panel A) and an MTS assay was carried out 2 days later to determine cell viability. […] At 100 μM concentrations of Regorafenib and Sorafenib, and 100 mM concentrations of 5-FU, cellular viability remained below 20% that of the control for all four of the colorectal cancer cell lines utilized. However, screening with Dabrafenib and Trametinib produced diverging results from the other three anticancer drugs at higher concentrations. […] When treated with 1 mM concentrations of 5-FU, relative cellular viability was approximately 39% for SW480 cells and remained between 10%-22% for the HCT116, HT29, and CACO2 cells. These values were considerably lower than the relative cellular viability values for the lowest concentrations of the other anticancer drugs.
(§2) Cell Seeding: The original 15 mL centrifuge tubes containing the 10 mL of DMEM-10, cells, and trypsin were placed into a centrifuge. The centrifugation setting was 1500 RPM and at maximal acceleration for 5 minutes. After that time, the media and trypsin mixture was aspirated from the tubes, leaving the cell pellets still intact. 5 mL of DMEM-10 was then pipetted into each of the tubes, resuspending the cells in the process. Calculated volumes of the 5 mL cell-media solution were determined to ensure that 25,000 cells of each of the four colorectal cancer cell lines were seeded directly into each of the wells of a polystyrene clear-bottom 96-well plate. 100 μL of DMEM-10 media was then pipetted directly into the wells. The 96-well plates were incubated at 37° C. and 5% CO2 for 5 hours to allow the cells to reattach themselves to the bottom of the wells until media was aspirated and anticancer drug solutions were added.
(§3) Addition of Anticancer Drugs for Screening: The anticolorectal cancer drugs used in this screening included 5-FU, Regorafenib, Sorafenib, Trametinib, and Dabrafenib (Sigma-Aldrich, Missouri, USA)). High concentration drug stock solutions were created with DMSO. Lower concentration drug solutions were created by mixing the anticancer drug stocks with DMEM-10 media. […] drug solutions were generated for 5-FU; 1 μM, 10 μM, and 100 μM drug solutions were generated for Regorafenib, Sorafenib, and Dabrafenib; and 1 nM, 10 nM, and 100 nM drug solutions were generated for Trametinib. Media was carefully aspirated from the wells and 200 μL of the various drug-media solutions were placed into the wells containing cells. Three duplicates were generated for each anticancer drug concentration with each of the different cell types to calculate averages and run statistics on the data generated. Well plates were then incubated at 37° C. and 5% CO2 for […].
(§4) Cell viability assay: Cell viability was determined 48 hours after exposure to the anticancer drug solutions. The viability of the cells was examined by the CellTiter 96® AQueous One Solution Cell Proliferation (MTS) assay (Promega, Wisconsin, USA). The anticancer drug-media solutions were aspirated from the wells and 200 μL of the MTS reagent was carefully pipetted into the wells. The incubation time for the cells with the MTS reagent was approximately 45 minutes. The cell viability assay was performed on another 96-well plate and the absorbance was quantified by the EnVision Multilabel Plate Reader (PerkinElmer, California, USA).
Background: Formazan colour is commonly taken as a measure of viable cells.

Data set [2] relates to HCT116 cells. The data set is described as follows: cells. The format is cell-based. Particulars: Homo sapiens, HCT-116, read-out: relative cellular viability (MTS, relative to control). The method, then: as §1, §2, §3, §4
For data set [3], the system named is HCT116 cells. The data set is described as follows: 3D hyaluronan-based hydrogel construct drug screen, MTS assay. To be noted: Homo sapiens, HCT-116, 3D, 100 μM, HCT116, drug day 5, assay day 7; read-out: percent relative cell viability (MTS, relative to control). As for the experimental part: Polydimethylsiloxane, or PDMS, was used to coat the bottom of the wells. Cells were embedded within the hyaluronan-based hydrogel and were given 5 days to acclimate to their three-dimensional environment and on day 5 were administered different anticancer drug solutions (FIG. 7, panel A). […], Dabrafenib had greater efficacy in targeting the HCT116 and SW480 cell lines, which had relative cellular viability values of 38% and 43%, as opposed to the HT29 and CACO2 cell lines, which had higher cell viability values of 93% and 75%. […]
(§5) Well Coating with PDMS and Cell Isolation: Polydimethylsiloxane, or PDMS, (DOW Corning, North Carolina, USA) was used at a 1:10 curing agent ratio to coat the bottom of the 96-well plates and the plates were then placed in a 80° C. oven for at least one hour. Cells were passaged in the same methods previously mentioned (A) with the desire to place 10 μL 3D hyaluronan-based hydrogel constructs containing 100,000 cells each ([…]) into the wells of a 96-wells plate for all four colorectal cancer cell types. Depending on the cell count, a desired number of cells were isolated in new 15 mL centrifuge tubes as cell-media solution and underwent centrifugation.
(§6) Hydrogel Components of the Single-Cell Type Constructs: The hyaluronic acid-based hydrogel (ESI BIO, California, USA) was produced using a mixture of three components: Heprasil, Gelin-S, and Extralink PEGDA 2-ARM Acrylate crosslinker. These components were mixed in a 2:2:1 ratio by volume. 0.1% Irgacure photoinitiator (Sigma-Aldrich, Missouri, USA) was added to each of the three components prior to their mixture and the three components were placed in a 37° C. incubator for a ˜30 minutes to solubilize.
(§7) Forming Organoid Constructs: Once solubilized, the media was aspirated from the 15 mL centrifuge tube (post-centrifugation) and the cells were isolated as a pellet. The hydrogel components were added directly into the centrifuge tube containing the cells and the cells were carefully resuspended in the mixture. 10 μL of the gel-cell solution was placed in the center of the wells on the PDMS coating. This was continued for all wells containing cells and was repeated for each cell type. After this point, the gel can be exposed to UV light from a BlueWave 200 spot light (Dymax, Connecticut, USA) to solidify the hydrogel, or one can wait ˜30 minutes for the gel to form on its own. DMEM-10 media was then placed in the wells and the constructs were incubated for 5 days.
(§8) Anticancer Drug Screening and Cell Viability: The same five anticancer drugs were added on Day 5 and the cell viability assay occurred on Day 7.

Data set [4] has as its system SW480 cells. The data set is described as above. It is filed as cell-based. Particulars: for viability at 100 µM: Homo sapiens, SW480, drug day 5, assay day 7, read-out: percent relative cell viability (MTS, relative to control). The method, then: (§9) Polydimethylsiloxane, or PDMS, was used to coat the bottom of the wells. Cells were embedded within the hyaluronan-based hydrogel and were given 5 days to acclimate to their three-dimensional environment and on day 5 were administered different anticancer drug solutions (FIG. 7, panel A). […] At 100 μM concentrations of Regorafenib and Sorafenib, cellular viability remained below 25% that of the control for all four of the colorectal cancer cell lines utilized. The only exception to this was when 100 μM Regorafenib was administered to CACO2 cells and the percent relative cell viability rose to approximately 48%. […] At a 100 μM concentration, Dabrafenib had greater efficacy in targeting the HCT116 and SW480 cell lines, which had relative cellular viability values of 38% and 43%, as opposed to the HT29 and CACO2 cell lines, which had higher cell viability values of 93% and 75%. 100 μM concentrations of Trametinib produced relative cellular viability results that fell within a narrow range for the four colorectal cell lines with values of 54% for SW480 cells and 74% for HT29 cells.
as §5, §6, §7, §8

For data set [5], the system named is HT29 cells. The description is as above. It is filed as cell-based. Particulars: for viability at 100 µM: Homo sapiens, HT-29, 100 μM, HT29, drug day 5, assay day 7, read-out: percent relative cell viability (MTS, relative to control). The method, then: as §9, §5, §6, §7, §8
The test system of data set [6] is CACO2 cells. Described as above. To be noted: Homo sapiens, Caco-2, 3D, 100 μM, CACO2, drug day 5, assay day 7; read-out: percent relative cell viability (MTS, relative to control). The method, then:
as §9, §5, §6
Forming Organoid Constructs: Once solubilized, the media was aspirated from the 15 mL centrifuge tube (post-centrifugation) and the cells were isolated as a pellet. The hydrogel components were added directly into the centrifuge tube containing the cells and the cells were carefully resuspended in the mixture. 10 μL of the gel-cell solution was placed in the center of the wells on the PDMS coating. This was continued for all wells containing cells and was repeated for each cell type. […]

In data set [7] the test system is CACO2 cells. Kind of data set: cells. It is filed as cell-based. To be noted: Homo sapiens, Caco-2, read-out: relative cellular viability (MTS, relative to control). As for the experimental part: as §1, §2, §3, §4
The test system of data set [8] is HT29 cells. Kind of data set: cells. The format is cell-based. Particulars: Homo sapiens, HT-29, read-out: relative cellular viability (MTS, relative to control). As for the experimental part:
as §1, §2, §3, §4

Data set [9] relates to liver, cardiac, lung, testis, and brain organoids. The data set is described as follows: 5 organoid integrated drug screening (standard size platform), live/dead staining. The format is cell-based. To be noted: 20 uM. The method, then: (§10) Design and Results of Experiments: Five tissue platforms were initiated containing liver, cardiac, lung, testis, and brain organoids and maintained for 7 days prior to the start of the drug study. At this point, the liver modules were removed from half of the platforms. Capecitabine (20 uM) was administered to all platforms after which viability was assessed through live/dead staining or cardiac beating behavior after 7 days of exposure (day 14 of total study).

For data set [10] the test system is unchanged. Kind of data set: 5 organoid integrated drug screening in a miniaturized microfluidic platform, live/dead staining. It is filed as cell-based. Particulars: miniaturized system, 20 uM. As for the experimental part:
as §10, with “Experiments: Adhesive film-based microfluidic platforms were fabricated as described below. As with the full-scale platform described in Example 4, five” for “Experiments: Five”, “tissue constructs” for “tissue platforms”
FIG. 14 provides an overview of this fabrication methodology.

Where [11] appears, read: 7 days of exposure, with liver present.
Setting [12] is: 7 days of exposure, without liver.

Entries after “also recorded” stand apart in the source; their conditions may differ.

Turning to `CC(C)(C)c1nc(-c2cccc(NS(=O)(=O)c3c(F)cccc3F)c2F)c(-c2ccnc(N)n2)s1` [Dabrafenib], the viability at 100 µM in [1] was approximately 93%; in data set [2] it was approximately 36%; in data set [3], 38%; in [4], 43%; in data set [5], 93%; in data set [6] it was 75%.
As to `CNC(=O)c1cc(Oc2ccc(NC(=O)Nc3ccc(Cl)c(C(F)(F)F)c3)cc2)ccn1` [Sorafenib], the viability at 100 µM was less than 20% in [1]; less than 20% in data set [7]; less than 20% in [2]; less than 20% in data set [8]; less than 25% in [3]; less than 25% in data set [4]. Further, the viability at 100 µM in data set [5] and in data set [6] was less than 25% in each case.
Turning to `CC(=O)Nc1cccc(-n2c(=O)n(C3CC3)c(=O)c3c(Nc4ccc(I)cc4F)n(C)c(=O)c(C)c32)c1` [Trametinib], the viability at 0.1 µM in data set [1] (100 nM) was approximately 58%; in [7], approximately 39%. The “percent relative cell viability (MTS, relative to control)” value in data set [4] (100 μM concentrations of Trametinib, SW480) was 54%; in data set [5] (100 μM concentrations of Trametinib, HT29), 74%.
Turning to `CCCCCOC(=O)Nc1nc(=O)n([C@@H]2O[C@H](C)[C@@H](O)[C@H]2O)cc1F` [capecitabine], the “brain organoid viability (LIVE/DEAD)” value in data set [9] (7 days of exposure, with and without liver) is given as “brain organoids suffered in both groups”; in [10] (7 days of exposure) it was “brain organoid viability is high”. The “cardiac and lung organoid toxicity (LIVE/DEAD)” value is “heart and lung toxicity; also recorded: increased cell death in cardiac and lung organoids” in [9] (setting [11]); “heart and lung toxicity” in data set [10] (setting [11]). The “cardiac and lung organoid viability (LIVE/DEAD)” value in data set [9] (setting [12]) was “cardiac and lung organoid viability does not decrease”; in [10] (setting [12]), “cardiac and lung organoid viability does not decrease”. Besides, the “metabolism by liver organoids” value in [9] (with liver present) and in data set [10] (with liver present) was “metabolized into the toxic drug 5-FU” throughout.
